Here are results for ten compounds from PubChem BioAssay (NCI).

SMILES strings stand for the structures.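 Cultured in 96-well plates, cells were exposed to test compound for 48 hours across five concentrations. GI50: concentration for 50% inhibition of growth. TGI is the concentration that stops growth completely.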

Test systems include BT-549 breast; HOP-92 NSCLC; MALME-3M melanoma; NCI/ADR-RES ovarian; SN12C renal; SR leukemia; SW-620 colon; U251 CNS; UACC-62 melanoma; UO-31 renal.
Holding throughout (assay): growth of human tumour cells (NCI), 48 h

On to `Oc1cc2ccccc2cc1-c1n[nH]c(=S)n1-c1ccc(Cl)cc1`, for which the GI50 in the test with BT-549 breast was 16.2 µM; in the test on HOP-92 NSCLC it was 46 µM; in the test on MALME-3M melanoma, 8.85 µM; in the test with NCI/ADR-RES ovarian, 13.8 µM; in the test with SN12C renal it was 10.8 µM; with SR leukemia, 3.08 µM. For the same compound, the GI50 in the test with SW-620 colon was 23 µM; with U251 CNS, 13 µM; in the test on UACC-62 melanoma it was 7.88 µM; with UO-31 renal it was 23.2 µM. For the same compound, the TGI in the test on BT-549 breast was more than 100 µM; with HOP-92 NSCLC, more than 100 µM; in the test on MALME-3M melanoma, more than 100 µM; in the test on NCI/ADR-RES ovarian, 64.1 µM; in the test with SN12C renal, 55.2 µM; in the test with SR leukemia it was more than 100 µM. The TGI in the test with SW-620 colon is more than 100 µM; with U251 CNS, 90.9 µM; in the test on UACC-62 melanoma, 28.8 µM; in the test with UO-31 renal, 71.8 µM.
For the compound `CC(=O)Nc1sc2c(c1-c1nc3ccccc3s1)CNC2`, the GI50 was 6.83 µM with BT-549 breast; 4.21 µM with HOP-92 NSCLC; 2.21 µM in the test on MALME-3M melanoma; 1.97 µM in the test on NCI/ADR-RES ovarian; 2.5 µM in the test on SN12C renal; 1.68 µM in the test with SR leukemia. The GI50 in the test with SW-620 colon is 2.33 µM; in the test with U251 CNS, 4.06 µM; in the test on UACC-62 melanoma, 2.76 µM; in the test on UO-31 renal, 0.648 µM. Further, the TGI was 14.7 µM in the test on BT-549 breast; 19.2 µM in the test with HOP-92 NSCLC; 8.75 µM in the test on MALME-3M melanoma; 15.7 µM in the test on NCI/ADR-RES ovarian; 15.5 µM in the test with SN12C renal; 12.6 µM in the test with SR leukemia. Also, the TGI is 48.3 µM with SW-620 colon, 30.3 µM in the test with U251 CNS, 11.7 µM in the test with UACC-62 melanoma and 11.4 µM with UO-31 renal.
As for `O=C(O)/C=C\C(=O)Nc1ccc2c(c1)C(=O)c1cc(F)ccc1-2`, the TGI in the test with BT-549 breast, in the test with HOP-92 NSCLC, in the test on MALME-3M melanoma, with NCI/ADR-RES ovarian, in the test with SN12C renal and in the test on SR leukemia was more than 100 µM throughout. Moreover, the TGI with SW-620 colon, with U251 CNS, with UACC-62 melanoma and with UO-31 renal was more than 100 µM each time.
Turning to `O=[N+]([O-])c1ccc(-c2cn(-c3ccc(Cl)cc3)cn2)cc1`, the TGI in the test with BT-549 breast, with MALME-3M melanoma, in the test on NCI/ADR-RES ovarian, in the test on SN12C renal, in the test with SR leukemia and in the test on SW-620 colon was more than 100 µM each time. Moreover, the TGI in the test on U251 CNS, in the test on UACC-62 melanoma and in the test on UO-31 renal was more than 100 µM each time.
`Cc1ccc(S(=O)(=O)n2cc(-c3nnnn3-c3ccc(Cl)cc3)c(=O)c3ccccc32)cc1`: the GI50 is more than 100 µM in the test on BT-549 breast; more than 100 µM in the test on MALME-3M melanoma; more than 100 µM in the test with NCI/ADR-RES ovarian; more than 100 µM in the test with SN12C renal; 40.9 µM with SR leukemia; more than 100 µM with SW-620 colon. Moreover, the GI50 in the test with U251 CNS was 88.6 µM; with UACC-62 melanoma it was 54.8 µM; in the test on UO-31 renal, 52.5 µM. Moreover, the TGI in the test on BT-549 breast, in the test on MALME-3M melanoma, in the test with NCI/ADR-RES ovarian, in the test on SN12C renal, in the test with SR leukemia and with SW-620 colon was more than 100 µM throughout. Moreover, the TGI in the test on U251 CNS, in the test with UACC-62 melanoma and with UO-31 renal was more than 100 µM throughout.
Regarding `Cc1nc2cc(N)c(Cl)cc2[nH]1`, the TGI with BT-549 breast, with MALME-3M melanoma, in the test with NCI/ADR-RES ovarian, in the test with SN12C renal, in the test with SR leukemia and with SW-620 colon was more than 100 µM throughout. In addition, the TGI in the test on U251 CNS, in the test with UACC-62 melanoma and in the test with UO-31 renal was more than 100 µM in each case.
Take `CSc1nc2c(c(=O)[nH]1)C(c1ccc(Cl)cc1)C1=C(N2)/C(=C/c2ccc(Cl)cc2)CNC1` (stereo not drawn): the GI50 in the test with BT-549 breast was 1.8 µM; in the test with MALME-3M melanoma, 4.41 µM; in the test on NCI/ADR-RES ovarian, 3.29 µM; in the test on SN12C renal it was 2.06 µM; with SR leukemia it was 1.9 µM; in the test on SW-620 colon, 2.86 µM. Also, the GI50 in the test on U251 CNS is 1.61 µM; in the test with UACC-62 melanoma, 2.02 µM; in the test on UO-31 renal it was 1.43 µM. Also, the TGI in the test on BT-549 breast came out at 3.68 µM; in the test on MALME-3M melanoma it was 19.2 µM; in the test on NCI/ADR-RES ovarian it was 16.5 µM; with SN12C renal it was 4.7 µM; in the test on SR leukemia it was 5.87 µM; with SW-620 colon, 10 µM. The TGI is 3.09 µM in the test with U251 CNS, 4.5 µM in the test on UACC-62 melanoma and 2.91 µM with UO-31 renal.
On to `COC(=O)C1C2CCCN2OC1(C)CO` (stereo not drawn), for which the TGI in the test on BT-549 breast, in the test with NCI/ADR-RES ovarian, in the test on SN12C renal, with SR leukemia, in the test with SW-620 colon and in the test on U251 CNS was more than 100 µM throughout. Moreover, the TGI with UACC-62 melanoma and in the test on UO-31 renal was more than 100 µM each time.
For the compound `C/C(=N\NC(=O)c1ccncc1)c1ccc(O)cc1O`, the GI50 with BT-549 breast was more than 100 µM; with HOP-92 NSCLC, 17.1 µM; with NCI/ADR-RES ovarian, 3.42 µM; with SN12C renal it was 6.48 µM; in the test with SR leukemia it was 4.16 µM; in the test with SW-620 colon, 7.68 µM. Further, the GI50 was 1.59 µM in the test with U251 CNS, 3.3 µM in the test on UACC-62 melanoma and 2.82 µM in the test on UO-31 renal. For the same compound, the TGI in the test with BT-549 breast, in the test with HOP-92 NSCLC, in the test with NCI/ADR-RES ovarian, in the test on SN12C renal, with SR leukemia and in the test with SW-620 colon was more than 100 µM each time. Moreover, the TGI with U251 CNS is more than 100 µM; with UACC-62 melanoma, more than 100 µM; in the test with UO-31 renal, 20.5 µM.
Turning to `O=C(CN1CCN(c2ccc(Cl)cc2)CC1)N1CCN(c2nnc(-c3ccccc3)c(-c3ccccc3)n2)CC1`, the GI50 was 3.14 µM with BT-549 breast; 6.68 µM in the test with HOP-92 NSCLC; 2.7 µM in the test with MALME-3M melanoma; 5.4 µM with NCI/ADR-RES ovarian; 8.23 µM with SN12C renal; 2.73 µM with SR leukemia. Moreover, the GI50 in the test with SW-620 colon was 38.9 µM; in the test on U251 CNS, 8.02 µM; with UO-31 renal, 4.41 µM. Also, the TGI was more than 100 µM with BT-549 breast; more than 100 µM in the test with HOP-92 NSCLC; more than 100 µM with MALME-3M melanoma; more than 100 µM in the test with NCI/ADR-RES ovarian; more than 100 µM in the test with SN12C renal; 15.7 µM with SR leukemia. Besides, the TGI in the test with SW-620 colon, with U251 CNS and in the test on UO-31 renal was more than 100 µM each time.
